# Read-outs that look alike come from different tables or passages of the source.
# Experiments:
# [1] = Pharmacokinetics in Sprague-Dawley rats; type: in vivo; conditions: rat, plasma; for bioavailability / Cmax / Tmax / half-life: po; for bioavailability: 1 mg/kg; for Cmax / Tmax / half-life: p.o. 1 mg/kg
# Protocol: Male (n=12, 2 groups of 6) and female (n=12, 2 groups of 6) Sprague-Dawley rats (275–300 g) with indwelling jugular vein cannulae were fasted overnight prior to dosing. Animals were dosed either intravenously (i.v.) via bolus injection through a percutaneous catheter into a lateral tail vein or orally (p.o.) via gavage. Olinciguat was formulated in 60% polyethylene glycol (PEG) 400/40% water at 0.3 mg/ml (0.3 mg/kg) for i.v. dosing, and at 1 mg/ml (1 mg/kg) in 100% PEG 400 for p.o. dosing. Chow was returned to animals 4 h postdose.
# Blood from i.v. and p.o. dosed rats was collected at 16 timepoints (2 groups of rats, 8 timepoints per group) over 24 h. Samples were collected into potassium ethylenediamine tetraacetic acid (K2EDTA) tubes, centrifuged (3,500 rpm for 10 min) to yield plasma. In the pharmacokinetic studies and in all in vivo studies, olinciguat plasma concentrations were determined by LC-MS/MS. Pharmacokinetic (PK) parameters were calculated by noncompartmental analysis using sparse sampling in Phoenix® WinNonLin® v.6.3 (Certara, Princeton, NJ).
# [2] = Quantitative whole-body autoradiography in Long-Evans rats; type: in vivo, rat; conditions: single p.o. 3 mg/kg, 14C-derived radioactivity
# Protocol: Quantitative whole-body autoradiography (QWBA) assays were performed at QPS, LLC (Newark, DE) as described previously (Solon et al., 2002). Male Long-Evans (LE) rats (218–262 g, n=11, Hilltop Lab Animals, Inc., Scottdale, PA) were studied. All rats were administered a single p.o. dose of [^14C]-olinciguat at a target dose of 3 mg/kg and approximately 200 µCi/kg formulated in PEG 400 in water (60:40 v/v). Immediately prior to euthanasia, blood was obtained via cardiac puncture for plasma radioactivity determinations by liquid scintillation counting. At each timepoint (1, 2, 4, 8, 12, 24, 48, 72, 96, 168, and 504 h post-dose), one rat was euthanized by immersion in a hexane/solid carbon dioxide bath and frozen for at least 15 min for QWBA analysis. Each frozen rat carcass was embedded in a 2% carboxymethylcellulose matrix with a microtome stage at −20°C. Concentrations of radioactivity were used to determine the concentration of compound equivalents in each tissue and in plasma using the Specific Activity of 66.7 µCi/mg of [^14C]-olinciguat. Whole body sections for each rat were mounted on a cardboard backing, covered with thin plastic wrap, and exposed along with calibration standards of [^14C]-glucose at 10 different concentrations (0.00096 to 7.8 µCi/g) to a ^14C-sensitive phosphor imaging plate (Fuji Biomedical, Stamford, CT). Imaging plates were scanned using the Typhoon 9410 image acquisition system (GE/Molecular Dynamics, Sunnyvale, CA, USA). Radioactivity concentration in tissues was quantified by image densitometry using MCID image analysis software (v. 7.0, Interfocus Imaging Ltd) and a standard curve constructed from the integrated response (molecular dynamics counts/mm^2) and the nominal concentrations of [^14C]-glucose standards. Tissue concentration data were obtained for virtually all tissues (see Supplemental Materials). The concentrations of radioactivity were expressed as the microgram equivalents of [^14C]-olinciguat per gram of sample. An upper and lower limit of quantification, determined by using the radioactive concentration of the highest and lowest calibration standards divided by the specific activity of the test article in formulation, was applied to the data. Phoenix® WinNonLin® v.6.3 was used to determine PK parameters, including maximal concentration (Cmax) and area under the curve of all observed points (AUCall). Tissue:plasma AUCall ratios were determined.
smiles,measurement,setting,value
"NC(=O)[C@](O)(CNc1nc(-c2cc(-c3ccon3)n(Cc3ccccc3F)n2)ncc1F)C(F)(F)F [olinciguat, (R)-3,3,3-trifluoro-2-(((5-fluoro-2-(1-(2-fluorobenzyl)-5-(isoxazol-3-yl)-1H-pyrazol-3-yl)pyrimidin-4-yl)amino)methyl)-2-hydroxypropanamide]",Vd,"[1]; both sexes, Sprague-Dawley, intravenous, 0.3 mg/kg, male and female rats, mean, read-out: mean pharmacokinetic volume of distribution",1 L/kg
same,bioavailability,"[1]; both sexes, Sprague-Dawley, rats, sexes not separated (discussion), read-out: oral bioavailability (rats, overall)",40%
same,clearance,"[1]; iv, female Sprague Dawley rats, i.v. 0.3 mg/kg",5.6 mL/min/kg
same,Vd,"[1]; iv, female Sprague Dawley rats, i.v. 0.3 mg/kg, read-out: Vss",0.9 L/kg
same,clearance,"[1]; iv, male Sprague Dawley rats, i.v. 0.3 mg/kg",11.3 mL/min/kg
same,Vd,"[1]; iv, male Sprague Dawley rats, i.v. 0.3 mg/kg, read-out: Vss",1.1 L/kg
same,bioavailability,"[1]; female Sprague Dawley rats, read-out: Oral bioavailability",45%
same,bioavailability,"[1]; male Sprague Dawley rats, read-out: Oral bioavailability",36%
same,Cmax,[1]; female Sprague Dawley rats,198 ng/mL
same,Tmax,[1]; female Sprague Dawley rats,3 h
same,half-life,[1]; female Sprague Dawley rats,3.9 h
same,Cmax,[1]; male Sprague Dawley rats,96.4 ng/mL
same,Tmax,[1]; male Sprague Dawley rats,1 h
same,half-life,[1]; male Sprague Dawley rats,3.5 h
same,AUCall blood-to-plasma ratio,[2],0.73
same,"tissue:plasma AUCall ratio, adrenal gland",[2],2.41
same,"tissue:plasma AUCall ratio, cecum",[2],4.63
same,"tissue:plasma AUCall ratio, esophagus",[2],2.01
same,"tissue:plasma AUCall ratio, kidney cortex",[2],13.6
same,"tissue:plasma AUCall ratio, kidney medulla",[2],5.14
same,"tissue:plasma AUCall ratio, liver",[2],50.3
same,"tissue:plasma AUCall ratio, remaining eight tissues (all four measured regions of the brain, spinal cord, bone, eye lens)",[2],≤ 0.1
same,"tissue:plasma AUCall ratio, small intestine",[2],27.5
same,"tissue:plasma AUCall ratio, urinary bladder",[2],2.62
same,"tissue:plasma ratio, aorta",[2],0.92
same,"tissue:plasma ratio, brown adipose",[2],1.16
same,"tissue:plasma ratio, heart",[2],0.84
same,"tissue:plasma ratio, lung",[2],0.86
same,"tissue:plasma ratio, skeletal muscle",[2],0.52
same,"tissue:plasma ratio, white adipose",[2],0.67

# — paper PMC7156612, “Olinciguat, an Oral sGC Stimulator, Exhibits Diverse Pharmacology Across Preclinical Models of Cardiovascular, Metabolic, Renal, and Inflammatory Disease” (Frontiers in Pharmacology, 2020)
